Assay results reported in ChEMBL document CHEMBL3351771, “Development of inhibitors of the 2C-methyl-D-erythritol 4-phosphate (MEP) pathway enzymes as potential anti-infective agents” (J Med Chem, 2014).
Converted amounts (≈) assume the structure as drawn.

Tests used:
[1] = Inhibition of Escherichia coli IspE
[2] = target: T1, 1-deoxy-D-xylulose-5-phosphate synthase (Deinococcus radiodurans (strain ATCC 13939 / DSM 20539 / JCM 16871 /LMG 4051 / NBRC 15346 / NCIMB 9279 / R1 / VKM B-1422), UniProt Q9RUB5); assay: Inhibition of Deinococcus radiodurans DXS
T1 sequence (Q9RUB5 whole entry): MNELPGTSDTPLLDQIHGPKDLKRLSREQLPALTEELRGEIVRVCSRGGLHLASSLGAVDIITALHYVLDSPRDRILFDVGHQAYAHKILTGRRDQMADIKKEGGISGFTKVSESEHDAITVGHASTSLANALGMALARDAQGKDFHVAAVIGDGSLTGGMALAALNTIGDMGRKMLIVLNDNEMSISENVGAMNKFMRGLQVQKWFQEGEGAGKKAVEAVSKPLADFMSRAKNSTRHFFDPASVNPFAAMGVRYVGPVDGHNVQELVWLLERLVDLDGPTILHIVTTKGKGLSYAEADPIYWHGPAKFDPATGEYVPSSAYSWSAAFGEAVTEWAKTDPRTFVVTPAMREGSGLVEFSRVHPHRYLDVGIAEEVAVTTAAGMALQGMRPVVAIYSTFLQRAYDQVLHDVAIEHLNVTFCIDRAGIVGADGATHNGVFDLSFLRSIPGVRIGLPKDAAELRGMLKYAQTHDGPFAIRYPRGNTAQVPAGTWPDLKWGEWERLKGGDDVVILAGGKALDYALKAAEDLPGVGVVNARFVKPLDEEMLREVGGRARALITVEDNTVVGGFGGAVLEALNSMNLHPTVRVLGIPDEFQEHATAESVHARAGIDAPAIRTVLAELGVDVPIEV

[3] = Inhibition of Aquifex aeolicus IspH
[4] = Inhibition of Plasmodium falciparum IspF
[5] = Inhibition of Mycobacterium tuberculosis IspF
[6] = test system: Aquifex aeolicus; assay: Inhibition of Aquifex aeolicus IspH assessed as residual activity at 1 mM
[7] = target: T2, 1-deoxy-D-xylulose-5-phosphate synthase (Escherichia coli O127:H6 (strain E2348/69 / EPEC), UniProt B7UJP3); assay: Inhibition of Escherichia coli DXS
T2 sequence (B7UJP3 whole entry): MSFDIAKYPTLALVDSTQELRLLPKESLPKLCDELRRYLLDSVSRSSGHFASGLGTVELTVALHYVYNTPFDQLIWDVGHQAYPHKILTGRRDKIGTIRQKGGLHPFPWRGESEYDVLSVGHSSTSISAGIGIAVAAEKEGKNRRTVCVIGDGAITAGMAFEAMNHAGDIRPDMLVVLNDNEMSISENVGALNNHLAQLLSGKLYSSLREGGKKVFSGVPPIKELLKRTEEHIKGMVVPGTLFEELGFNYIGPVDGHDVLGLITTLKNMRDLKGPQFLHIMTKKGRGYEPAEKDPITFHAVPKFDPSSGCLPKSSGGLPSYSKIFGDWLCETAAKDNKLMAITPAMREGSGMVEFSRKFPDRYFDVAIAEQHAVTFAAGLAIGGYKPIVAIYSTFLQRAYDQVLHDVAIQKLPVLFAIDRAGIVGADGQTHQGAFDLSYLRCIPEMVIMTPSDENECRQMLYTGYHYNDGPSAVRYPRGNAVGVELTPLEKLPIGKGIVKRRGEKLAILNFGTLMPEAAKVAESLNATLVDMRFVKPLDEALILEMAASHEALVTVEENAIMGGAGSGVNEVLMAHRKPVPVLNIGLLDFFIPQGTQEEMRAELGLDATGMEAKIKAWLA

[8] = target: T3, 1-deoxy-D-xylulose-5-phosphate synthase (Mycobacterium tuberculosis, UniProt P9WNS3); assay: Inhibition of Mycobacterium tuberculosis DXS
T3 sequence (P9WNS3 whole entry): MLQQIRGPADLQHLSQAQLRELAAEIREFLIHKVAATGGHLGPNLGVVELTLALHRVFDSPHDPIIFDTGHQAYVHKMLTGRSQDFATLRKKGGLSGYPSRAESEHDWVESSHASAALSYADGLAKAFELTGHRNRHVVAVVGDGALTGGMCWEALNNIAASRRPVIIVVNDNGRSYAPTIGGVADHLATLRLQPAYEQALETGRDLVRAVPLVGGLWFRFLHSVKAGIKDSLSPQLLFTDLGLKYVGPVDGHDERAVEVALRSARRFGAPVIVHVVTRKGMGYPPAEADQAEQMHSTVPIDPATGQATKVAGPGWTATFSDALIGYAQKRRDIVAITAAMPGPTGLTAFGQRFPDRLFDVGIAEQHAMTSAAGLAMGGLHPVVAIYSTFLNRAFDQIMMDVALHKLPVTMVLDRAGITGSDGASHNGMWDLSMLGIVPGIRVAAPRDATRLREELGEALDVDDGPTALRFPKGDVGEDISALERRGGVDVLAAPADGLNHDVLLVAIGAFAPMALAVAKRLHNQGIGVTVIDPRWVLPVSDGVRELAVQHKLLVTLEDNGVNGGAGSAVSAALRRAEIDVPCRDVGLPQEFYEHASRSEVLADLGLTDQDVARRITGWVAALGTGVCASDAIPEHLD

[9] = Inhibition of Yersinia pestis DXS
[10] = Inhibition of Salmonella enteric DXS; set-up: species or system Salmonella enterica
[11] = Inhibition of Aquifex aeolicus IspE
[12] = Inhibition of Arabidopsis thaliana IspD
[13] = target: T4, 1-deoxy-D-xylulose 5-phosphate reductoisomerase (Mycobacterium tuberculosis, UniProt P9WNS1); assay: Inhibition of Mycobacterium tuberculosis Dxr
T4 sequence (P9WNS1 whole entry): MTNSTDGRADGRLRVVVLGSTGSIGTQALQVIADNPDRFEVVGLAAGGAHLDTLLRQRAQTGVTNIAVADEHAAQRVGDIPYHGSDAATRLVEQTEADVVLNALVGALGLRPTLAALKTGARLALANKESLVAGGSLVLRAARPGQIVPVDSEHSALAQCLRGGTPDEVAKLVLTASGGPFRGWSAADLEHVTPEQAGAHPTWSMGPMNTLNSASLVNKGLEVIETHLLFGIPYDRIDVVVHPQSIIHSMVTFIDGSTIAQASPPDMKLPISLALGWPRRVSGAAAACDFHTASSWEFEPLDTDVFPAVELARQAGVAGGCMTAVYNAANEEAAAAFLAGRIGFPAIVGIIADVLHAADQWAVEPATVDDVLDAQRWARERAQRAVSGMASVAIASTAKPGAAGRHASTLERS

[14] = test system: Mycobacterium tuberculosis; assay: Antimicrobial activity against Mycobacterium tuberculosis; assay type: functional, organism-based
[15] = test system: Escherichia coli; assay: Induction of Escherichia coli IspF assessed as fold increase in activity at 500 uM
[16] = Inhibition of Escherichia coli IspD
[17] = target: T5, 1-deoxy-D-xylulose-5-phosphate synthase (Haemophilus influenzae (strain 86-028NP), UniProt Q4QKG6); assay: Inhibition of Haemophilus influenzae DXS
T5 sequence (Q4QKG6 whole entry): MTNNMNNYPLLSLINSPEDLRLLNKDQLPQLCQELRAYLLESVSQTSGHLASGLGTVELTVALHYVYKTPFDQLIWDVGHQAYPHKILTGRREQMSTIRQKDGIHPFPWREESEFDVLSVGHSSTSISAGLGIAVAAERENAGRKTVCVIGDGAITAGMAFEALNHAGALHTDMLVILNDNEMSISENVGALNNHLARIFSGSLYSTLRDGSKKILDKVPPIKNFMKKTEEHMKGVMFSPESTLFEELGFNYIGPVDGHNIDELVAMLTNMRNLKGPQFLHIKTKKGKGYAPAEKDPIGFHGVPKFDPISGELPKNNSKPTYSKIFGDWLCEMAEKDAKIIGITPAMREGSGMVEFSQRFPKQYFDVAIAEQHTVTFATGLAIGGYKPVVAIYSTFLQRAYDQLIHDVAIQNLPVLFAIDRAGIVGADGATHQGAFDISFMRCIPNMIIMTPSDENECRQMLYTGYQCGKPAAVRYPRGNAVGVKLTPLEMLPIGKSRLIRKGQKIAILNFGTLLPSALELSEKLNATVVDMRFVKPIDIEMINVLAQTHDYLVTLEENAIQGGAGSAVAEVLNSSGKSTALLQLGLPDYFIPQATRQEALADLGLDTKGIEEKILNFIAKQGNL

[18] = test system: Escherichia coli; assay: Inhibition of Escherichia coli IspF at 500 uM
[19] = test system: Escherichia coli; assay: Inhibition of Escherichia coli IspF at 500 uM after 30 mins preincubation
[20] = test system: Haemophilus influenzae; assay: Antimicrobial activity against Haemophilus influenzae; assay type: functional
[21] = Inhibition of Arabidopsis thaliana DXS
[22] = Inhibition of Mycobacterium smegmatis IspD; set-up: species or system Mycolicibacterium smegmatis
[23] = Inhibition of Plasmodium falciparum Dxr
[24] = Inhibition of Plasmodium falciparum NF54 IspE
[25] = Inhibition of tomato IspE; set-up: species or system Solanum lycopersicum
[26] = target: T1, 1-deoxy-D-xylulose-5-phosphate synthase; assay: Binding affinity to Deinococcus radiodurans DXS
[27] = target: T3, 1-deoxy-D-xylulose-5-phosphate synthase; assay: Binding affinity to Mycobacterium tuberculosis DXS
[28] = Inhibition of Chlamydomonas DXS
[29] = Inhibition of Escherichia coli IspG

COC(c1cn(CC#Cc2cn(C3CCCS3)c(=O)nc2N)c(C2CCCCC2)n1)C(F)(F)F (centres undefined)
IC50 [1]: 9.9 µM

Cc1ncc(Cc2csc(CCO)c2C)c(N)n1 [3-DEAZATHIAMINE]
IC50 [2]: 430 µM

O=c1c2ccccc2nc(-c2cccnc2)n1-c1ccc(Br)cn1
IC50 [1]: 3 µM

C#CCCOP(=O)(O)OP(=O)(O)O [BUT-3-YNYL DIPHOSPHATE]
IC50 [3]: 0.45 µM

CCOC(=O)C1=C(C)N=c2s/c(=C\c3cc(Br)c(O)c(Br)c3)c(=O)n2C1C1CCCS1 (centres undefined)
IC50 [4]: 9.6 µM
IC50 [5]: 6.1 µM

COc1ccccc1-c1cnc(N)c(C#CCNS(=O)(=O)C2CC2)c1
IC50 [1]: 242 µM

C/C(=C/CONS(=O)(=O)NC(=O)OC(C)(C)C)CO
Activity [6]: 61%

COc1cc(C#Cc2ccc(C#CCOc3cccnc3)cn2)nc(N)n1
IC50 [1]: 8.7 µM

CCCCOP(=O)(O)C(C)=O
Ki [7]: 5.6 µM
Ki [8]: 4 µM
Ki [9]: 7.5 µM
Ki [10]: 8.4 µM

CCOP(=O)(O)C(C)=O
Ki [7]: 6.7 µM

COCCS(=O)(=O)NCC#Cc1cn(C2CCCS2)c(=O)nc1N (centres undefined)
IC50 [1]: 30 µM
IC50 [11]: > 500 µM

N#Cc1cnn2c(O)c(Cc3ccccc3)c(Cl)cc12
IC50 [12]: 0.035 µM

O=P(O)(O)OP(=O)(O)OCc1cccnc1
IC50 [3]: 38 µM

O=C(CCCc1ccccc1)N(O)CCCP(=O)(O)O
IC50 [13]: 17.8 µM
IC50 [14]: 17.8 µM

Nc1nc(=O)n(C2CCCS2)cc1C#CCNS(=O)(=O)C(=O)[C@@H](O)[C@@H](O)[C@H](O)[C@H](O)CO (some centres undefined)
IC50 [1]: 407 µM
IC50 [11]: > 500 µM

C[C@@](CO)(OP(=O)(O)O)[C@H](O)COP(=O)(O)CP(=O)(O)O
fold change (FC) [15]: 1.6

Oc1c(Cc2ccccc2)c(Cl)cc2ncnn12
IC50 [12]: 0.14 µM

O=P(O)(O)OP(=O)(O)OCCc1cccnc1 [PYRIDIN-3-YL-ETHYL-DIPHOSPHATE]
IC50 [3]: 9.1 µM

O=P(O)(O)OC[C@@H](O)[C@@H](O)CO
IC50 [16]: 1360 µM

CC(C)(C(=O)O)C(=O)N(O)Cc1ccccc1Cl
IC50 [17]: 1 µM

C[C@@](CO)(OP(=O)(O)O)[C@H](O)COP(=O)(O)CP(=O)(O)OC[C@H]1O[C@@H](n2ccc(N)nc2=O)[C@H](O)[C@@H]1O
inhibition [18]: 0%
inhibition [19]: 37%

CC(C)(CO)C(=O)N(O)Cc1ccccc1Cl
IC50 [17]: 3.1 µM
MIC [20]: 64 µg/mL (≈ 248 µM)

O=C(O)c1ccc(-c2ccc(/C=N/NC3Nc4ccccc4S3)o2)cc1 (centres undefined)
IC50 [21]: 33 µM

CCCCCCCCCCCC[N+](C)(C)CCOc1ccccc1.[Br-] [DOMIPHEN BROMIDE]
IC50 [22]: 33 µg/mL

FC(F)(F)Oc1cccc(Cn2cnc3ccccc32)c1
IC50 [2]: 595 µM

CN(O)C(=O)CCC(c1ccccc1)P(=O)(O)O (centres undefined)
IC50 [23]: 0.0031 µM

Nc1nc(=O)n(C2CCCS2)cc1C#CCNS(=O)(=O)C1CC1 (centres undefined)
IC50 [1]: 1.7 µM

Nc1nc(=O)n(C2CCCO2)cc1C#CCNS(=O)(=O)C1CC1 (centres undefined)
IC50 [1]: 2 µM

COc1ccc(-c2onc(C(F)(F)F)c2-c2ccc(Br)cc2)c(O)c1
IC50 [21]: 32 µM

CN(C)c1ccnc(C(=O)N/N=C2\N=C(N)c3c2ccc2ccccc32)c1
IC50 [24]: 0.018 µM

NC1=N/C(=N\NC(=O)c2cc(Cl)ccn2)c2ccc3ccccc3c21
IC50 [25]: 7.2 µM

CC(=O)P(=O)(O)OCc1ccccc1
Ki [7]: 10.4 µM

Cc1ncc(C[n+]2csc(CCO[P@](=O)(O)OP(=O)(O)O)c2C)c(N)n1
Kd [26]: 0.114 µM
Kd [27]: 3.1 µM

CC1(C)C(=O)ON(Cc2ccccc2Cl)C1=O [KETOCLOMAZONE]
IC50 [28]: 100 µM
Ki [17]: 23.3 µM
MIC [20]: 12.5 µg/mL (≈ 49.3 µM)

Oc1csc(Nc2nccs2)n1
IC50 [1]: 160 µM

COc1ccc2nc(NC(=O)c3cc(-c4ccccc4O)n[nH]3)sc2c1
IC50 [12]: 1.8 µM

C#CCOP(=O)(O)OP(=O)(O)O [PROP-2-YNYL DIPHOSPHATE]
IC50 [29]: 0.75 µM

C/C(=C/COC(=O)Nc1ccc(C)cc1)CO
Activity [6]: 62%

Cc1[nH]c2ccccc2c1C(Nc1ccccn1)c1ccccc1O (centres undefined)
IC50 [1]: 19 µM

Nc1nc(=O)n(C2CCCS2)cc1S(=O)(=O)c1ccccc1 (centres undefined)
IC50 [1]: 220 µM
IC50 [11]: > 500 µM

NC1=N/C(=N\NC(=O)c2ccccn2)c2ccc3ccccc3c21
IC50 [24]: 0.058 µM
